Entries after “also recorded” stand apart in the source; their conditions may differ.
Tests used:
newborn infant = assay: Manipulation of the sleep/wake circadian rhythm of a newborn infant by exogenous melatonin given orally to the nursing mother (suckled or pumped breast milk); assay type: in vivo, human
Protocol: The following log includes nighttime sleep data of the infant taking nothing else by mouth except thrush medication during about weeks 2-4. […] All melatonin used in this Example was an immediate-release formulation taken by the […] orally.
• Sunday (10 days post-partum, first day of exogenous melatonin administration in breast milk): • At 20:50 […] took 3 mg melatonin orally. At 21:20 breast-fed baby. […] Monday: • At 19:45, […] took 1.05 mg. […] Tuesday: • At 20:30, […] took 0.9 mg and fed at 9. […] Wednesday: • At 20:45, […] took 3 mg. […] Thursday. • […] took 3 mg at 20:45. […] Week 2 Sunday. • […] took 3 mg at 20:30 but ate immediately after. […] Tuesday: • […] took 3 mg at 20:30. […] Wednesday • […] took 3 mg at 20:30. […] Friday • […] took 3 mg at 20:30. […] Saturday: • […] took 3 mg at 20:30. […] Week 3 Sunday: • […] took 3 mg at 15:00. […] Monday • […] took 3 mg at 17:20. […] Tuesday: • […] took 3 mg at 17:00. […] Wednesday: • […] took 1.8 mg at 17:45. […] Thursday: • […] took 3 mg at 17:00. […] Friday: • […] took 3 mg at 20:30. […] Saturday: • […] took 2 mg at 19:15.

[1] = adults, orally-administered melatonin; cited from earlier work
[2] = same maternal dosing, infant fed by breast milk

## COc1ccc2[nH]cc(CCNC(C)=O)c2c1 [melatonin, N-acetyl-5-methoxytryptamine]
Newborn infant; 10 days post-partum, mother took 3 mg orally at 20:50, baby breast-fed at 21:20
  infant sleep period after first feeding with exogenous melatonin in breast milk: slept between 22:00 and 04:00
Newborn infant; Week 5 Monday, parent took 3 mg at 17:00
  improvement of colic versus its worst: about 40%
Newborn infant; parent took 1.8-12 mg (usually 3 mg) in the evening, sometimes 1-2 mg in the middle of the night or 0.5 mg towards end of night, immediate-release, oral, infant fed by suckling or pumped breast milk
  sleep of mother and newborn: better sleep for both mother and newborn
Newborn infant; [2]
  actual breast-feeding time during the night: no reduction
  development of the infant's independent ability to synchronize to the ambient light/dark cycle: appeared to accelerate development; also recorded: caused early synchronization
  evening/nighttime colic in the infant: less evening/nighttime colic
  weight gain in the baby: steady weight gain; also recorded: excellent on melatonin, better than before melatonin
[1]
  melatonin bioavailability: 1-15%

From US20080058405A1, “REPLICATING MELATONIN SIGNALING IN A FETUS, NEWBORN OR SUCKLING INFANT” (OREGON HEALTH & SCIENCE UNIVERSITY, priority 2006, published 2008)
